Results reported in US9688707B2, “Bicyclic morpholino compounds and oligomeric compounds prepared therefrom” (Ionis Pharmaceuticals, Inc., priority 2014, dated 2017).

Tested on: complementary RNA with the sequence 5′-AGCAAAAAACGC-3′ (SEQ ID NO: 6)
Experiment: Thermal stability (Tm) assay
Assay type: binding
Conditions: for ΔTm: calculated relative to a DNA standard, same duplex and buffer as Tm; for Tm: duplex with complementary RNA strand, buffer 100 mM NaCl, 10 mM phosphate, 0.1 mM EDTA (pH 7), heating 0.5° C./min from 15° C. to 85° C.
Description: A series of modified morpholino oligomeric compounds were evaluated in a thermal stability (Tm) assay. A Cary 100 Bio spectrophotometer with the Cary Win UV Thermal program was used to measure absorbance vs. temperature. For the Tm experiments, oligomeric compounds were prepared at a concentration of 8 μM in a buffer of 100 mM NaCl, 10 mM phosphate and 0.1 mM EDTA (pH 7). The concentration of the oligonucleotides was determined at 85° C. The concentration of each oligomeric compound was […] after mixing of equal volumes of test oligomeric compound and complimentary RNA strand. Oligomeric compounds were hybridized with the complimentary RNA strand by heating the duplex to 90° C. for 5 minutes followed by cooling to room temperature. Using the spectrophotometer, Tm measurements were taken by heating the duplex solution at a rate of 0.5° C./min in cuvette starting @15° C. and heating to 85° C. Tm values were determined using Vant Hoff calculations (A260 vs temperature curve) using non self-complementary sequences where the minimum absorbance which relates to the duplex and the maximum absorbance which relates to the non-duplex single strand are manually integrated into the program. The oligomeric compounds were hybridized to complementary RNA with the sequence 5′-AGCAAAAAACGC-3′ (SEQ ID NO: 6). ΔTm's are calculated relative to a DNA standard.

Substance | ΔTm | Tm
05/585595: GCGTTmRTTmRTTmRGCT, diamidate linkages, morpholino, 3′-cap NH (GCGTT_{mR}TT_{mR}TT_{mR}GCT; morpholino oligomer, diamidate linkages, modified morpholino nucleosides at marked places, 3'-NH cap, as printed in the source, key not given here) | 5.3 °C | 50.9 °C
05/592979: GCGTTqTTqTTqGCT, q = bicyclic morpholino, diamidate linkages, 3′-cap NH (GCGTT_{q}TT_{q}TT_{q}GCT; morpholino oligomer, diamidate linkages, bicyclic morpholino at marked places, 3'-NH cap, as printed in the source, key not given here) | 3 °C | 48.6 °C
05/592978: GCGTTqTTqTTqGCT, q = bicyclic morpholino, diamidate linkages, 3′-cap NTr (trityl) (GCGTT_{q}TT_{q}TT_{q}GCT; bicyclic morpholino, diamidate linkages, 3'-trityl cap, as printed in the source, key not given here) | −2.2 | 43.4 °C
05/592594: GCGTTmSTTmSTTmSGCT, diamidate linkages, morpholino, 3′-cap NTr (trityl) (GCGTT_{mS}TT_{mS}TT_{mS}GCT; morpholino oligomer, diamidate linkages, modified morpholino nucleosides at marked places, 3'-trityl cap, as printed in the source, key not given here) | 5.1 °C | 50.7 °C
05/592595: GCGTTmSTTmSTTmSGCT, diamidate linkages, morpholino, 3′-cap NH (GCGTT_{mS}TT_{mS}TT_{mS}GCT; modified morpholino nucleosides, diamidate linkages, 3'-NH cap, as printed in the source, key not given here) | 10 °C | 55.6 °C
05/592592: GCGTTmRTTmRTTmRGCT, diamidate linkages, morpholino, 3′-cap NTr (trityl) (GCGTT_{mR}TT_{mR}TT_{mR}GCT; modified morpholino nucleosides, diamidate linkages, 3'-trityl cap, as printed in the source, key not given here) | −0.8 | 44.8 °C
05/standard: DNA standard GCGTTTTTTGCT, PO linkages, unmodified DNA, 3′-cap OH (unmodified DNA) [reference compound] |  | 45.6 °C
